# Test results as given in patent US9662327B2 (AGIOS PHARMACEUTICALS, INC, priority 2011, dated 2017).
# Biological target: IDH1 R132H (Homo sapiens (Human), UniProt O75874, R132H)
# Assay: Assays for IDH1 R132H Inhibitors (NADPH/aKG, resazurin detection)
# Format: biochemical
# Conditions: IDH1 R132H enzyme, Table 2; read-out: IDHR132H Activity
# Method in brief: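 Substrate mix held 8 uM NADPH plus 2 mM aKG; buffer was 20 mM Tris pH 7.5 with 150 mM NaCl, 10 mM MgCl2, 0.03% BSA. After 50 min room-temperature reaction, NADPH remaining was detected with 30 μM resazurin mix over 5 min.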
# IDH1 R132H, sequence (O75874 whole entry R132H): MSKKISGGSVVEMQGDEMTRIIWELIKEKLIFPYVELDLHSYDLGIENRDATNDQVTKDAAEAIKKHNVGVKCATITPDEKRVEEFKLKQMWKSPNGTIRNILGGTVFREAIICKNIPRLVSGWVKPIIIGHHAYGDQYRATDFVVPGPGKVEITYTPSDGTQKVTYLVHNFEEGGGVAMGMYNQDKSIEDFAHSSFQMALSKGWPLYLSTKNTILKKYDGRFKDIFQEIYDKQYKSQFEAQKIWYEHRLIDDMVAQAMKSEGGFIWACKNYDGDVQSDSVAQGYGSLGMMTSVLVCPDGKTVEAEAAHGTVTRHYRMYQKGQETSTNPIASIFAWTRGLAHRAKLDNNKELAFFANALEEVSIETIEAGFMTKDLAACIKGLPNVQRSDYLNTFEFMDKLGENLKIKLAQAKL
row,SMILES,IC50 [nM]
1,COCCC(=O)N1[C@H](C)CN(c2nc(C3CC3)c3c(c2C#N)CC(C)(C)OC3)C[C@@H]1C [Compound 356],1000 to 10000
2,"C=CCNC(=O)N1CCN(c2nc(C3CC3)c3c(c2C#N)CC(C)(C)OC3)C[C@H]1C(C)C [Compound 304, (R)—N-allyl-4-(5-cyano-8-cyclopropyl-3,3-dimethyl-3,4-dihydro-1H-pyrano[3,4-c]pyridin-6-yl)-2-isopropylpiperazine-1-carboxamide]",< 500
3,"CC(C)[C@@H]1CN(c2nc(C3CC3)c3c(c2C#N)CC(C)(C)OC3)CCN1C(=O)CCC(=O)O [Compound 416, (R)-4-(4-(5-cyano-8-cyclopropyl-3,3-dimethyl-3,4-dihydro-1H-pyrano[3,4-c]pyridin-6-yl)-2-isopropylpiperazin-1-yl)-4-oxobutanoic acid]",1000 to 10000
4,"CC(C)c1nc(N2CCN(C(=O)Cc3cccnc3)[C@H](C)C2)c(C#N)c2c1COC(C)(C)C2 [Compound 248, (R)-8-isopropyl-3,3-dimethyl-6-(3-methyl-4-(2-(pyridin-3-yl)acetyl)piperazin-1-yl)-3,4-dihydro-1H-pyrano[3,4-c]pyridine-5-carbonitrile]",1000 to 10000
5,"C[C@@H]1CN(c2nc(C3CC3)c3c(c2C#N)CC(C)(C)OC3)[C@@H](C)CN1C(=O)c1ccoc1 [Compound 308, 8-cyclopropyl-6-((2S,5R)-4-(furan-3-carbonyl)-2,5-dimethylpiperazin-1-yl)-3,3-dimethyl-3,4-dihydro-1H-pyrano[3,4-c]pyridine-5-carbonitrile]",1000 to 10000
6,"C[C@H]1CN(C(=O)c2ccco2)CCN1c1nc(C2CC2)c2c(c1C#N)CC(C)(C)OC2 [Compound 203, (S)-8-cyclopropyl-6-(4-(furan-2-carbonyl)-2-methylpiperazin-1-yl)-3,3-dimethyl-3,4-dihydro-1H-pyrano[3,4-c]pyridine-5-carbonitrile]",1000 to 10000
7,"CCOC(=O)C1CN(c2nc(C(C)C)c3c(c2C#N)CC(C)(C)OC3)CCN1C(=O)OC (stereo not drawn) [Compound 333, 2-ethyl 1-methyl 4-(5-cyano-8-isopropyl-3,3-dimethyl-3,4-dihydro-1H-pyrano[3,4-c]pyridine-6-yl)piperazine-1,2-dicarboxylate]",1000 to 10000
8,"Cc1ccoc1C(=O)N1CCN(c2nc(C(C)C)c3c(c2C#N)CC(C)(C)OC3)C[C@H]1C [Compound 173, (R)-8-isopropyl-3,3-dimethyl-6-(3-methyl-4-(3-methylfuran-2-carbonyl)piperazin-1-yl)-3,4-dihydro-1H-pyrano[3,4-c]pyridine-5-carbonitrile]",1000 to 10000
9,"CCOC(=O)C1CN(c2nc(C(C)C)c3c(c2C#N)CC(C)(C)OC3)CCN1C(=O)OCCOC (stereo not drawn) [Compound 329, 2-ethyl 1-(2-methoxyethyl) 4-(5-cyano-8-isopropyl-3,3-dimethyl-3,4-dihydro-1H-pyrano[3,4-c]pyridin-6-yl)piperazine-1,2-dicarboxylate]",1000 to 10000
10,"CC1(C)Cc2c(C#N)c(N3CCN(C(=O)c4ccoc4)C(c4ccccc4)C3)nc(C3CCCCC3)c2CO1 (stereo not drawn) [Compound 143, 8-cyclohexyl-6-(4-(furan-3-carbonyl)-3-phenylpiperazin-1-yl)-3,3-dimethyl-3,4-dihydro-1H-pyrano[3,4-c]pyridine-5-carbonitrile]",1000 to 10000
11,CC1(C)Cc2c(C#N)c(N3CCN(C(=O)c4ccco4)[C@H](c4ccccc4)C3)nc(C3CC3)c2CO1 [Compound 272],500 to 1000
12,CC(C)[C@@H]1CN(c2nc(C3CC3)c3c(c2C#N)CC(C)(C)OC3)CCN1C(=O)NCC1CC1 [Compound 365],1000 to 10000
13,CCOC(=O)C1CN(c2nc(C(C)C)c3c(c2C#N)CC(C)(C)OC3)CCN1C(=O)c1ccoc1 (stereo not drawn) [Compound 276],500 to 1000
14,"Cc1ncoc1C(=O)N1CCN(c2nc(C(C)C)c3c(c2C#N)CC(C)(C)OC3)C[C@H]1C [Compound 197, (R)-8-isopropyl-3,3-dimethyl-6-(3-methyl-4-(4-methyloxazole-5-carbonyl)piperazin-1-yl)-3,4-dihydro-1H-pyrano[3,4-c]pyridine-5-carbonitrile]",1000 to 10000
15,"Cc1nc2ccccn2c1C(=O)N1CCN(c2nc(C(C)C)c3c(c2C#N)CC(C)(C)OC3)C[C@H]1C [Compound 220, (R)-8-isopropyl-3,3-dimethyl-6-(3-methyl-4-(2-methylimidazo[1,2-a]pyridine-3-carbonyl)piperazin-1-yl)-3,4-dihydro-1H-pyrano[3,4-c]pyridine-5-carbonitrile]",1000 to 10000
16,"CC(C)[C@@H]1CN(c2nc(C3CC3)c3c(c2C#N)CC(C)(C)OC3)CCN1C(=O)Cn1ccc2ccccc21 [Compound 406, (R)-6-(4-(2-(1H-indol-1-yl)acetyl)-3-isopropylpiperazin-1-yl)-8-cyclopropyl-3,3-dimethyl-3,4-dihydro-1H-pyrano[3,4-c]pyridine-5-carbonitrile]",1000 to 10000
17,"CCC(=O)N1CCN(c2nc(C3CCCCC3)c3c(c2C#N)CCOC3)C[C@H]1C [Compound 363, (R)-8-cyclohexyl-6-(3-methyl-4-propionylpiperazin-1-yl)-3,4-dihydro-1H-pyrano[3,4-c]pyridine-5-carbonitrile]",1000 to 10000
18,"CC(C)c1nc(N2CCN(C(=O)C3CCOC3)[C@H](C)C2)c(C#N)c2c1COC(C)(C)C2 (stereo partly drawn) [Compound 253, 8-isopropyl-3,3-dimethyl-6-((3R)-3-methyl-4-(tetrahydrofuran-3-carbonyl)piperazin-1-yl)-3,4-dihydro-1H-pyrano[3,4-c]pyridine-5-carbonitrile]",1000 to 10000
19,"CCOC(=O)C1CN(c2nc(C(C)C)c3c(c2C#N)CC(C)(C)OC3)CCN1C(=O)CCOC (stereo not drawn) [Compound 311, ethyl 4-(5-cyano-8-isopropyl-3,3-dimethyl-3,4-dihydro-1H-pyrano[3,4-c]pyridin-6-yl)-1-(3-methoxypropanoyl)piperazine-2-carboxylate]",500 to 1000
20,"CC(=O)OCC(C)(C)C(=O)N1CCN(c2nc(C3CC3)c3c(c2C#N)CC(C)(C)OC3)C[C@H]1C(C)C [Compound 419, (R)-3-(4-(5-cyano-8-cyclopropyl-3,3-dimethyl-3,4-dihydro-1H-pyrano[3,4-c]pyridin-6-yl)-2-isopropylpiperazin-1-yl)-2,2-dimethyl-3-oxopropyl acetate]",1000 to 10000
21,"CC(C)c1nc(N2CCN(C(=O)c3cocn3)[C@H](C(C)C)C2)c(C#N)c2c1COC(C)(C)C2 [Compound 212, (R)-8-isopropyl-6-(3-isopropyl-4-(oxazole-4-carbonyl)piperazin-1-yl)-3,3-dimethyl-3,4-dihydro-1H-pyrano[3,4-c]pyridine-5-carbonitrile]",500 to 1000
22,"CCOC(=O)C1CN(c2nc(C3CCCCC3)c3c(c2C#N)CCOC3)CCN1C(=O)c1ccco1 (stereo not drawn) [Compound 314, ethyl 4-(5-cyano-8-cyclohexyl-3,4-dihydro-1H-pyrano[3,4-c]pyridin-6-yl)-1-(furan-2-carbonyl) piperazine-2-carboxylate]",1000 to 10000
23,"COCCC(=O)N1CCN(c2nc(C3CCCCC3)c3c(c2C#N)CC(C)(C)OC3)C[C@H]1C [Compound 312, (R)-8-cyclohexyl-6-(4-(3-methoxypropanoyl)-3-methylpiperazin-1-yl)-3,3-dimethyl-3,4-dihydro-1H-pyrano[3,4-c]pyridine-5-carbonitrile]",1000 to 10000
24,"C[C@@H]1CN(c2nc(C3CCCCC3)c3c(c2C#N)CCOC3)CCN1C(=O)OCc1ccccc1 [Compound 343, (R)-benzyl 4-(5-cyano-8-cyclohexyl-3,4-dihydro-1H-pyrano[3,4-c]pyridin-6-yl)-2-methylpiperazine-1-carboxylate]",1000 to 10000
